# Measurements reported in patent US9173397B2, “Formulation component” (Syngenta Limited, priority 2011, dated 2015).
# Like-named read-outs stand apart in the source and are kept apart here.
# Key:
# [1] = system: Alopecurus myosuroides, Avena fatua, Lolium perenne, Setaria viridis; test: Glasshouse weed kill, pinoxaden with/without adjuvants (Example 8); format: in vivo; conditions: for adjuvant efficacy in words (pinoxaden): conclusion from Table 9
# Protocol: The efficacy of the aromatic esters tri-n-hexyltrimellitate (Morflex®560) and tri-isodecylmellitate (Morflex®530) as adjuvants for pinoxaden were tested in a glasshouse against four weed species. An agrochemical composition was prepared containing 0.2% v/v of the adjuvant in a track sprayer and was applied at a volume of 200 liters per hectare. Pinoxaden was applied at either 7.5 or 15 grams per hectare on each of the weed species. The weed species and their growth stage at spraying were Alopecurus myosuroides (ALOMY; growth stage 13), Avena fatua (AVEFA; growth stage 12); Lolium perenne (LOLPE; growth stage 13), Setaria viridis (SETVI; growth stage 14).
# Each spray test was replicated three times. The efficacy of the herbicide was assessed visually and expressed as a percentage of the leaf area killed. Samples were assessed at time periods of 7 and 14 days following application. The results shown in Table 9 below are mean averages over the two rates of pinoxaden, three replicates, four weed species and the two assessment timings. The results were compared to the efficacy of pinoxaden in the absence of an adjuvant and pinoxaden in the presence of either tri-2-ethylhexyl phosphate (applied at 0.5% v/v) or methyl oleate (applied at 0.2% v/v).
# [2] = system: Abutilon theophrasti, Chenopodium album, Digitaria sanguinalis, Setaria viridis; format: in vivo; conditions: for adjuvant efficacy in words (nicosulfuron): conclusion from Table 8
# Protocol: The efficacy of the aromatic esters tri-n-hexyltrimellitate (Morflex®560) and tri-isodecylmellitate (Morflex®530) as adjuvants for nicosulfuron were tested in a glasshouse against four weed species. An agrochemical composition was prepared containing 0.2% v/v of the adjuvant in a track sprayer, and was applied at a volume of 200 liters per hectare. The adjuvant oils were emulsified using a small amount of the surfactant Pluronic® PE 10500, which was present in the composition at a concentration of 0.02% v/v. Nicosulfuron was applied at a rate of either 30 or 60 grams per hectare. The weed species and their growth stage at spraying were Abutilon theophrasti (ABUTH; growth stage 13), Chenopodium album (CHEAL; growth stage 14), Digitaria sanguinalis (DIGSA; growth stage 13), and Setaria viridis (SETVI; growth stage 13).
# Each spray test was replicated three times. The efficacy of the herbicide was assessed visually and expressed as a percentage of the leaf area killed. Samples were assessed at time periods of 14 and 21 days following application. […] In this experiment Atplus®411F was added at the higher rate of 0.5% v/v. The other adjuvants were added at 0.2% v/v.
# [3] = system: Septoria tritici; test: Septoria tritici infection of wheat plants, isopyrazam spray with/without adjuvants; format: in vivo, Septoria tritici (on wheat plants); conditions: conclusion from Table 2
# Protocol: The efficacy of the following aromatic acid esters tri-n-hexyltrimellitate (Morflex®560) and tri-isodecyl trimellitate (Morflex®530), as adjuvants in compositions comprising isopyrazam was tested and compared to the standard formulations (both EC and SC) of the fungicide, which lack this type of adjuvant.
# Wheat plants were inoculated with the fungus Septoria tritici. Five days after inoculation the plants were sprayed with a diluted emulsion concentrate or suspension concentrate formulation of the fungicide isopyrazam at rates of 3, 10, 30 and 100 mg of the fungicide per litre of spray solution, using a laboratory track sprayer which delivered the spray at a rate of 200 liters per hectare. Spray tests were also carried out with diluted suspension concentrate additionally comprising each of the benzoate adjuvants described above. These adjuvants were added to the spray solution at a rate of 0.5% w/w, based on the quantity of spray liquor. The adjuvant oils were emulsified using a small amount of the surfactant Pluronic® PE 10500, which was present in the composition at a concentration of 0.02% v/v. The leaves of the plants were assessed visually 14 days after the spray application and the damage was expressed as the percentage of the leaf area infected.
# [4] = system: Polygonum convolvulus, Brachiaria platyphylla, Digitaria sanguinalis, Amaranthus tuberculatus; test: Glasshouse weed kill, mesotrione with/without adjuvants (Example 5); format: in vivo
# Protocol: The efficacy of the aromatic ester tri-n-hexyltrimellitate (Morflex®560) was tested in a glasshouse against four weed species using the herbicide mesotrione. An agrochemical composition was prepared containing 0.2% v/v of the adjuvant in a track sprayer and was applied at a volume of 200 liters per hectare. The adjuvant oils were emulsified using a small amount of the surfactant Pluronic® PE 10500, which was present in the composition at a concentration of 0.02% v/v. Mesotrione was applied at either 45 or 90 grams of pesticide per hectare on weeds which had been grown to the 1.3 or 1.4 leaf stage. The weed species were Polygonum convolvulus (POLCO), Brachiaria platyphylla (BRAPL) Digitaria sanguinalis (DIGSA) and Amaranthus tuberculatus (AMATU).
# Each spray test was replicated three times. The efficacy of the herbicide was assessed visually and expressed as a percentage of the leaf area killed. Samples were assessed at time periods of 7, 14 and 21 days following application. The results shown in Table 6 below are mean averages over the two rates of mesotrione, three relicates, four weed species and the three assessment timings and are compared to the efficacy of mesotrione in the absence of an adjuvant, and mesotrione in the presence of the commercially available adjuvants acetyl tributyl citrate or Tween®20 which were used at concentrations of 0.2 and 0.5% w/w respectively.
# [5] = system: Tetranychus urticae; test: Mortality of two spotted spider mite on French bean plants, abamectin with/without Morflex 560; format: in vivo, Tetranychus urticae (on Phaseolus vulgaris); conditions: for % mortality of Tetranychus urticae: 10 days, larva and adults averaged, Morflex 560 0.1% v/v where present
# Protocol: The efficacy of tri-n-hexyltrimellitate (Morflex® 560) as an adjuvant in compositions containing abamectin was tested and compared to the efficacy of abamectin compositions which lack this type of adjuvant. The Morflex 560 was present at 0.1% v/v in the abamectin compositions. The surfactants polyoxyethylene sorbitan monooleate and an ethoxylated castor oil were also present in all the abamectin compositions tested. Two week old French bean (Phaseolus vulgaris) plants were infested with a mixed population of two spotted spider mite Tetranychus urticae. One day after infestation the plants were treated with the test compositions, with a track sprayer from the top with a rate of 200 liters per hectare. Plants were incubated in the greenhouse for 10 days and the evaluation was done on mortality against Larva and Adults, just on the lower side (untreated) of the leaves. Each experiment was replicated twice and the results were averaged. The mortality against Larva and Adults was then averaged.
# [6] = system: Alopecurus myosuroides, Avena fatua, Lolium perenne, Setaria viridis; test: Glasshouse weed kill, pinoxaden with/without adjuvants (Example 6); format: in vivo
# Protocol: The efficacy of the aromatic ester tri-n-hexyltrimellitate (Morflex®560) was tested in a glasshouse against four weed species using the herbicide pinoxaden. An agrochemical composition was prepared containing 0.2% v/v of the adjuvant in a track sprayer and was applied at a volume of 200 liters per hectare. The adjuvant oils were emulsified using a small amount of the surfactant Pluronic® PE 10500, which was present in the composition at a concentration of 0.02% v/v. Pinoxaden was applied at either 7.5 or 15 grams of pesticide per hectare on each of the weed species. The weed species and their growth stage at spraying were Alopecurus myosuroides (ALOMY; growth stage 13), Avena fatua (AVEFA; growth stage 12); Lolium perenne (LOLPE; growth stage 13), Setaria viridis (SETVI; growth stage 14).
# Each spray test was replicated three times. The efficacy of the herbicide was assessed visually and expressed as a percentage of the leaf area killed. Samples were assessed at time periods of 14 and 21 days following application. The results shown in table 7 below are mean averages over the two rates of pinoxaden, three replicates, four weed species and the two assessment timings, and are compared to the efficacy of pinoxaden in the absence of adjuvant and pinoxaden in the presence of the known adjuvant acetyl tributyl citrate which was used at a concentration of 0.2% w/w.
# [7] = system: Chenopodium album, Abutilon theophrasti, Setaria viridis, Xanthium strumarium; test: Glasshouse weed kill, fomesafen with/without adjuvants (Example 4); format: in vivo
# Protocol: (§1) The efficacy of the aromatic acid ester Morflex ®560 (tri-n-hexyltrimellitate) as an adjuvant for the herbicide fomesafen was tested against four weed species in a glasshouse and compared to the well-know adjuvants, acetyl tributyl citrate and Turbocharge® which were added at concentrations of 0.2 and 0.5% w/w respectively. The adjuvant oils were emulsified using a small amount of the surfactant Pluronic® PE 10500, which was present in the composition at a concentration of 0.02% v/v.
# An agrochemical composition was prepared containing 0.2% v/v of the adjuvant in a track sprayer and was applied at a volume of 200 liters per hectare. Fomesafen was applied at either 60 or 120 grams of pesticide per hectare on each of the weed species. The weed species and their growth stage at spraying were Chenopodium album (CHEAL; growth stage 14), Abutilon theophrasti (ABUTH; growth stage 12), Setaria viridis (SETVI; growth stage 13), and Xanthium strumarium (XANST; growth stage 12).
# Each spray test was replicated three times. The efficacy of the herbicide was assessed visually and expressed as a percentage of the leaf area killed. Samples were assessed at time periods of 7, 14 and 21 days following application. […]
# [8] = system: Abutilon theophrasti, Chenopodium album, Digitaria sanguinalis, Setaria viridis; test: Glasshouse weed kill, nicosulfuron with/without adjuvants (Example 3); format: in vivo
# Protocol: as §1, with “nicosulfruon” for “fomesafen”, “adjuvants, tris-2-ethylhexyl phosphate and” for “adjuvants,”, “citrate” for “citrate and Turbocharge®”, “tested” for “added”, “0.2% w/w.” for “0.2 and 0.5% w/w respectively.”
# An agrochemical composition was prepared containing 0.2% v/v of the adjuvant in a track sprayer, and was applied at a volume of 200 liters per hectare. Nicosulfuron was applied at a rate of either 30 or 60 grams of pesticide per hectare. The weed species and their growth stage at spraying were Abutilon theophrasti (ABUTH; growth stage 13), Chenopodium album (CHEAL; growth stage 14), Digitaria sanguinalis (DIGSA; growth stage 13), and Setaria viridis (SETVI; growth stage 13).
# Each spray test replicated three times. The efficacy of the herbicide was assessed visually and expressed as a percentage of the leaf area killed. Samples were assessed at time periods of 14 and 21 days following application. […]
compound,measurement,setting,value
CC(C)CCCCCCCOC(=O)c1ccc(C(=O)OCCCCCCCC(C)C)c(C(=O)OCCCCCCCC(C)C)c1 [Tri-isodecyl trimellitate],adjuvant efficacy in words (pinoxaden),[1],increases the efficacy of pinoxaden
same,adjuvant efficacy in words (nicosulfuron),[2],increases the efficacy of the herbicide nicosulfuron
same,"adjuvant efficacy in words (isopyrazam, S. tritici)",[3],as efficacious as the commercial tank mix adjuvant Turbocharge®
"CS(=O)(=O)c1ccc(C(=O)C2C(=O)CCCC2=O)c([N+](=O)[O-])c1 [Mesotrione, reference compound]","Mean percentage kill, mean across species","[4]; % leaf area killed, mean over mesotrione 45 and 90 g/ha, 7, 14 and 21 days, four species, adjuvant 0.2% (Tween 20 0.5% w/w)",34.0 B %
Abamectin,% mortality of Tetranychus urticae,[5]; abamectin 0.2 ppm,0%
same,% mortality of Tetranychus urticae,[5]; abamectin 0.4 ppm,0%
same,% mortality of Tetranychus urticae,[5]; abamectin 0.8 ppm,27%
same,% mortality of Tetranychus urticae,[5]; abamectin 1.5 ppm,70%
same,% mortality of Tetranychus urticae,[5]; abamectin 3 ppm,95%
"CCc1cc(C)cc(CC)c1-c1c(OC(=O)C(C)(C)C)n2n(c1=O)CCOCC2 [Pinoxaden, reference compound]","Mean percentage kill, mean across species","[1]; % leaf area killed, mean over pinoxaden 7.5 and 15 g/ha, 7 and 14 days, four species, adjuvant 0.2% v/v (tri-2-ethylhexyl phosphate 0.5% v/v)",2.3 D %
same,"Mean percentage kill, mean across species","[6]; % leaf area killed, mean over pinoxaden 7.5 and 15 g/ha, 14 and 21 days, four species, adjuvant 0.2%",11.4 C %
"CCCCCCOC(=O)c1ccc(C(=O)OCCCCCC)c(C(=O)OCCCCCC)c1 [Tri-n-hexyltrimellitate, Tri-n-hexyl trimellitate]",adjuvant efficacy in words (fomesafen),[7]; conclusion from Table 5,as effective an adjuvant as Turbocharge® and better than acetyl tributyl citrate
same,adjuvant efficacy in words (nicosulfuron),[8]; conclusion from Table 4,as effective an adjuvant as either tris-2-ethylhexylphosphate or acetyl tributyl citrate
same,adjuvant efficacy in words (pinoxaden),[1],increases the efficacy of pinoxaden
same,adjuvant efficacy in words (nicosulfuron),[2],more effective an adjuvant than methyl oleate and as effective an adjuvant as Atplus®411F
same,adjuvant efficacy in words (mesotrione),[4]; conclusion from Table 6,as effective an adjuvant as either acetyl tributyl citrate or Tween®20
same,mortality of Tetranychus urticae,"[5]; composition without abamectin, 0.1% v/v Morflex 560",no mortality was observed
same,"adjuvant efficacy in words (abamectin, Tetranychus urticae)",[5]; conclusion from Table 10,provided effective control of Tetranychus urticae at much lower concentrations of abamectin than are required in the absence of adjuvant
same,adjuvant efficacy in words (pinoxaden),[6]; conclusion from Table 7,more effective an adjuvant than acetyl tributyl citrate
same,"adjuvant efficacy in words (isopyrazam, S. tritici)",[3],as efficacious as the commercial tank mix adjuvant Turbocharge®
"CS(=O)(=O)NC(=O)c1cc(Oc2ccc(C(F)(F)F)cc2Cl)ccc1[N+](=O)[O-] [Fomesafen, reference compound]","Mean percentage kill, mean across species","[7]; % leaf area killed, mean over fomesafen 60 and 120 g/ha, 7, 14 and 21 days, four species, adjuvant 0.2% (Turbocharge 0.5% w/w)",22.5 D %
"COc1cc(OC)nc(NC(=O)NS(=O)(=O)c2ncccc2C(=O)N(C)C)n1 [Nicosulfuron, reference compound]","Mean percentage kill, mean across species","[8]; % leaf area killed, mean over nicosulfuron 30 and 60 g/ha, 14 and 21 days, four species, adjuvant 0.2%",42.5 B %
same,"Mean percentage kill, mean across species","[2]; % leaf area killed, mean over nicosulfuron 30 and 60 g/ha, 14 and 21 days, four species, adjuvant 0.2% v/v (Atplus 411F 0.5% v/v)",31.1 E %
